Source: publication PMC5835418 (Journal of pharmaceutical and biomedical analysis, 2018)
Structures can show the parent of a compound that is named as a salt. Values belong to the molecule of their own block, whether it stands above or below them.

Columns and labels:
[1] = ex vivo, data not shown
[2] = for number of freeze-thaw cycles for which stable: plasma, -80°C
[3] = Injection matrix stability; conditions: 72 h at 4°C, compared to the previously run curve; data not shown
[4] = data not shown
[5] = Plasma concentrations in mice after rectal enema dosing of TAF or CMX157; type: in vivo
[6] = cited from earlier work
[7] = human, 24 h
[8] = following a single 25 mg dose of TAF; ref 24 (Custodio and colleagues); cited from earlier work
[9] = 72 h
[10] = human, 244 days

Compound: CCCCCCCCCCCCCCCCOCCCOP(=O)(O)CO[C@H](C)Cn1cnc2c(N)ncnc21 [CMX157, hexadecyloxypropyl tenofovir]
time up to which stable in whole blood [1]: ≤ 8 h

Compound: CC(C)OC(=O)[C@H](C)N[P@](=O)(CO[C@H](C)Cn1cnc2c(N)ncnc21)Oc1ccccc1 [TAF, tenofovir alafenamide fumarate]
time up to which stable in whole blood [1]: up to 1 h | number of freeze-thaw cycles for which stable [2]: two | injection matrix stability [3]: unstable | stability in mouse plasma as compared to human matrices [4]: less stable | plasma TAF/TFV ratio ([5]; colonic administration of TAF, mice): < 1 | time for conversion of TAF into TFV ([5]; mice dosed rectally with TAF): less than 15 minutes | plasma samples with detectable systemic TAF ([5]; mice, rectal TAF): 60%

Compound: CC(C)OC(=O)OCOP(=O)(CO[C@H](C)Cn1cnc2c(N)ncnc21)OCOC(=O)OC(C)C [TDF, tenofovir disoproxil fumarate]
increase in TFV bioavailability by prodrug administration [6]: 25%

sample matrix stability %DIF [7]: -14.5-8.45% | injection matrix stability %DIF [9]: −8.44-5.57% | freeze-thaw stability %DIF ([2]; human): -15.2-3.04% | number of freeze-thaw cycles for which stable [2]: three | long term storage stability %DIF [10]: ≤ ±10.5%
Compound: C[C@H](Cn1cnc2c(N)ncnc21)OCP(=O)(O)O [TFV, tenofovir]
Cmax [8]: 9.5 ng/mL
